Assay results published in patent US8846947B2, “Benzimidazoles and related analogs as sirtuin modulators” (GlaxoSmithKline LLC, priority 2008, dated 2014).

Biological target: T1, SIRT1 (Homo sapiens, UniProt Q96EB6)
T1 sequence (Q96EB6 1-747): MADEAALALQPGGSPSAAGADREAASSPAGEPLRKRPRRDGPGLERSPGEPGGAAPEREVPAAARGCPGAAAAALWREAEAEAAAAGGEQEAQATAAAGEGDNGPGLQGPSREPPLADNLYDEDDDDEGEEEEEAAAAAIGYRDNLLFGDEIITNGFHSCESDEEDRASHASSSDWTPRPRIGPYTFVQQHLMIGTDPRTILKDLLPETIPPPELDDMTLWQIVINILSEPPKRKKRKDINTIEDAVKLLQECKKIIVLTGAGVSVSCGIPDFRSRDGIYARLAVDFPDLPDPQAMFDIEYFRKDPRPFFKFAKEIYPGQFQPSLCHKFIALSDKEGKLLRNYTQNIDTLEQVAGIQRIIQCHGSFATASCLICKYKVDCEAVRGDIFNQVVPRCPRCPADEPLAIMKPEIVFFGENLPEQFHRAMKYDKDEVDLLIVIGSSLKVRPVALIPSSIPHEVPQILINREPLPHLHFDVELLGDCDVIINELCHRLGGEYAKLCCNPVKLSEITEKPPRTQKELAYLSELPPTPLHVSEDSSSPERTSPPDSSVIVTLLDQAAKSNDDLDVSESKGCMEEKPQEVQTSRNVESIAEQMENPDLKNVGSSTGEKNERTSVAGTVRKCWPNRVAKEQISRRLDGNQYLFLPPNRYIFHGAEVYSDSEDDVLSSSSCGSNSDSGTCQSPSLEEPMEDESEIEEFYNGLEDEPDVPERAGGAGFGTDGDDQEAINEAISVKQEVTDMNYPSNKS
Assay: Mass spectrometry based SIRT1 deacetylase activation assay (acetylated p53-derived peptide substrate)
Type: biochemical
Description: A mass spectrometry based assay was used to identify modulators of SIRT1 activity. The mass spectrometry based assay utilizes a peptide having 20 amino acid residues as follows: Ac-EE-K(biotin)-GQSTSSHSK(Ac)NleSTEG-K(5TMR)-EE-NH2 (SEQ ID NO: 1) wherein K(Ac) is an acetylated lysine residue and Nle is a norleucine. The peptide is labeled with the fluorophore 5TMR (excitation 540 nm/emission 580 nm) at the C-terminus. The sequence of the peptide substrate is based on p53 with several modifications. In addition, the methionine residue naturally present in the sequence was replaced with the norleucine because the methionine may be susceptible to oxidation during synthesis and purification.
The mass spectrometry assay is conducted as follows: 0.5 μM peptide substrate and 120 μM βNAD^+ is incubated with 10 nM SIRT1 for 25 minutes at 25° C. in a reaction buffer (50 mM Tris-acetate pH 8, 137 mM NaCl, 2.7 mM KCl, 1 mM MgCl2, 5 mM DTT, 0.05% BSA). Test compounds may be added to the reaction as described above. […] After the 25 minute incubation with SIRT1, 10 μL of 10% formic acid is added to stop the reaction. Reactions are sealed and frozen for later mass spec analysis. Determination of the mass of the substrate peptide allows for precise determination of the degree of acetylation (i.e. starting material) as compared to deacetylated peptide (product).
A control for inhibition of sirtuin activity is conducted by adding 1 μL of 500 mM nicotinamide as a negative control at the start of the reaction (e.g., permits determination of maximum sirtuin inhibition). A control for activation of sirtuin activity is conducted using 10 nM of sirtuin protein, with 1 μL of DMSO in place of compound, to determine the amount of deacetylation of the substrate at a given timepoint within the linear range of the assay. This timepoint is the same as that used for test compounds and, within the linear range, the endpoint represents a change in velocity.
For the above assay, SIRT1 protein was expressed and purified as follows. […] The protein was expressed by induction with 1 mM IPTG as an N-terminal His-tag fusion protein at 18° C. overnight and harvested at 30,000×g. Cells were lysed with lysozyme in lysis buffer (50 mM Tris-HCl, 2 mM Tris[2-carboxyethyl]phosphine (TCEP), 10 μM ZnCl2, 200 mM NaCl) and further treated with sonication for 10 min for complete lysis. The protein was purified over a Ni-NTA column (Amersham) and fractions containing pure protein were pooled, concentrated and run over a sizing column (Sephadex S200 26/60 global). The peak containing soluble protein was collected and run on an Ion-exchange column (MonoQ). Gradient elution (200 mM-500 mM NaCl) yielded pure protein. This protein was concentrated and dialyzed against dialysis buffer (20 mM Tris-HCl, 2 mM TCEP) overnight. The protein was aliquoted and frozen at −80° C. until further use.
Sirtuin modulating compounds that activated SIRT1 were identified using the assay described above and are shown below in Table 1. The EC1.5 values for the activating compounds are represented by A (EC1.5<1.0 uM), B (EC1.5 1-25 uM), C (EC1.5 >25 uM). The percent maximum fold activation is represented by A (Fold activation >200%) or B (Fold Activation <200%).

| EC1.5 | Fold Act. (percent maximum fold activation) | SMILES |
| --- | --- | --- |
| B (EC1.5 1-25 uM) | A (Fold activation >200%) | O=C(Nc1nccs1)c1cccc2[nH]c(-c3ccccc3)nc12 [Compound 200] |
| B (EC1.5 1-25 uM) | A (Fold activation >200%) | O=C(Nc1cnccn1)c1cccc2[nH]c(-c3ccccc3)nc12 [Compound 201] |
| A (EC1.5<1.0 uM) | A (Fold activation >200%) | O=C(Nc1nccs1)c1cccc2[nH]c(-c3cccc(C(F)(F)F)c3)nc12 [Compound 202] |
| A (EC1.5<1.0 uM) | A (Fold activation >200%) | O=C(Nc1cnccn1)c1cccc2[nH]c(-c3cccc(C(F)(F)F)c3)nc12 [Compound 203] |
| A (EC1.5<1.0 uM) | A (Fold activation >200%) | O=C(Nc1nccs1)c1cccc2[nH]c(-c3cccc(OC(F)(F)F)c3)nc12 [Compound 204] |
| A (EC1.5<1.0 uM) | A (Fold activation >200%) | O=C(Nc1cnccn1)c1cccc2[nH]c(-c3cccc(OC(F)(F)F)c3)nc12 [Compound 205] |
| B (EC1.5 1-25 uM) | A (Fold activation >200%) | Cc1csc(NC(=O)c2cccc3[nH]c(-c4cccc(C(F)(F)F)c4)nc23)n1 [Compound 206] |
| B (EC1.5 1-25 uM) | A (Fold activation >200%) | O=C(Nc1cc[nH]n1)c1cccc2[nH]c(-c3cccc(C(F)(F)F)c3)nc12 [Compound 207] |
| A (EC1.5<1.0 uM) | A (Fold activation >200%) | O=C(Nc1nccs1)c1cccc2[nH]c(-c3ccccc3C(F)(F)F)nc12 [Compound 208, N-(thiazol-2-yl)-2-(2-(trifluoromethyl)phenyl)-1H-benzo[d]imidazole-4-carboxamide] |
| C (EC1.5 >25 uM) | B (Fold Activation <200%) | O=C(Nc1nccs1)c1cccc2[nH]c(-c3ccc(C(F)(F)F)cc3)nc12 [Compound 209] |
| B (EC1.5 1-25 uM) | B (Fold Activation <200%) | O=C(Nc1nccs1)c1cccc2[nH]c(-c3cc(F)cc(C(F)(F)F)c3)nc12 [Compound 210] |
| B (EC1.5 1-25 uM) | A (Fold activation >200%) | N#Cc1cccc(-c2nc3c(C(=O)Nc4nccs4)cccc3[nH]2)c1 [Compound 211] |
| B (EC1.5 1-25 uM) | A (Fold activation >200%) | O=C(Nc1nccs1)c1cccc2[nH]c(-c3cccc(F)c3)nc12 [Compound 212] |
| B (EC1.5 1-25 uM) | A (Fold activation >200%) | O=C(Nc1nccs1)c1cccc2[nH]c(-c3cc(F)cc(F)c3)nc12 [Compound 213] |
| C (EC1.5 >25 uM) | B (Fold Activation <200%) | O=C(Nc1nccs1)c1cccc2[nH]c(-c3ccc(F)c(F)c3)nc12 [Compound 214] |
| B (EC1.5 1-25 uM) | A (Fold activation >200%) | O=C(Nc1nccs1)c1cccc2[nH]c(-c3ccccn3)nc12 [Compound 215] |
| C (EC1.5 >25 uM) | B (Fold Activation <200%) | O=C(Nc1nccs1)c1cccc2[nH]c(-c3ccc(F)c(C(F)(F)F)c3)nc12 [Compound 216] |
| C (EC1.5 >25 uM) | B (Fold Activation <200%) | O=C(Nc1nccs1)c1cccc2[nH]c(-c3cccc(C(F)(F)F)c3F)nc12 [Compound 217] |
| B (EC1.5 1-25 uM) | A (Fold activation >200%) | O=C(Nc1nccs1)c1cccc2[nH]c(-c3cc(C(F)(F)F)ccc3F)nc12 [Compound 218] |
| B (EC1.5 1-25 uM) | A (Fold activation >200%) | O=C(Nc1nccs1)c1cccc2[nH]c(-c3cccc(Cl)c3)nc12 [Compound 219] |
